According to ChEMBL document CHEMBL1125619, “Effect of fluorine substitution on the adrenergic properties of 3-(tert-butylamino)-1-(3,4-dihydroxyphenoxy)-2-propanol” (J Med Chem, 1991):

Assays:
[1] = biological target: Beta-1 adrenergic receptor (Cavia porcellus, UniProt B0FL73); test: Agonistic activity (beta-1 adrenergic receptor) for the percent maximal increase in contraction rate of isolated guinea pig atria; type: functional
Adrenergic receptor beta = Adrenergic receptor beta (Rattus norvegicus, UniProt P18090+P10608+P26255); test: Beta adrenergic receptor agonistic activity for the stimulation of accumulation of cyclic AMP in cultured C6 glioma cells; type: functional, cell-based
[2] = biological target: Beta-2 adrenergic receptor (Cavia porcellus, UniProt Q8K4Z4); test: Agonistic activity (beta2- adrenergic) for the percent maximal relaxation of isolated guinea pig trachea; type: functional, tissue-based
Chain of Beta-2 adrenergic receptor (Q8K4Z4 whole entry): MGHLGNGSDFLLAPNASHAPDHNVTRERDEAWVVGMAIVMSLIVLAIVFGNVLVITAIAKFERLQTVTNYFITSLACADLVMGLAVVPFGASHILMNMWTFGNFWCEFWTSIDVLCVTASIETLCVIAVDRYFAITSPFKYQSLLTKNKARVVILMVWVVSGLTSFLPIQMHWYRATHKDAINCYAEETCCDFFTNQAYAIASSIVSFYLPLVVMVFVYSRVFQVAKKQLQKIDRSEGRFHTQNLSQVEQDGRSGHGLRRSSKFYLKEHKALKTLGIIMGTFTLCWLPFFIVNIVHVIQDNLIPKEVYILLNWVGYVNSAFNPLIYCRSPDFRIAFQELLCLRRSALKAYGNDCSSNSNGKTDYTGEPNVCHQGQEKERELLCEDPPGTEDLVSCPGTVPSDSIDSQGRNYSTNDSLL

[3] = biological target: Beta-1 adrenergic receptor (Rattus norvegicus, UniProt P18090)
Chain of Beta-1 adrenergic receptor (Rattus norvegicus, UniProt P18090) (P18090 whole entry): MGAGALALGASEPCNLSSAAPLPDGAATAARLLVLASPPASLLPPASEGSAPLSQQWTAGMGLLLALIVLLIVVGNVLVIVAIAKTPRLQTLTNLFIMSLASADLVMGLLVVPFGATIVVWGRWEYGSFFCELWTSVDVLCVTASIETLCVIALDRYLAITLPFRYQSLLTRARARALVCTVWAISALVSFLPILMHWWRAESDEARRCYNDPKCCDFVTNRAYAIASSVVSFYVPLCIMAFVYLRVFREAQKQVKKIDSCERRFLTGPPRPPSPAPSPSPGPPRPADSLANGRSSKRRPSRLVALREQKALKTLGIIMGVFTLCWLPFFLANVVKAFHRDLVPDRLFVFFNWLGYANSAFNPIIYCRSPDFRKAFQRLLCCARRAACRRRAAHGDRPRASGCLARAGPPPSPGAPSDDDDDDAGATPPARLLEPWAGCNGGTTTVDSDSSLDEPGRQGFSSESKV
Description: Compound was evaluated for the inhibition of binding of [3H]dihydroalprenolol from beta-1 adrenergic receptor of rat cerebral cortical membranes

Chain of Beta-1 adrenergic receptor (Cavia porcellus, UniProt B0FL73) (B0FL73 whole entry): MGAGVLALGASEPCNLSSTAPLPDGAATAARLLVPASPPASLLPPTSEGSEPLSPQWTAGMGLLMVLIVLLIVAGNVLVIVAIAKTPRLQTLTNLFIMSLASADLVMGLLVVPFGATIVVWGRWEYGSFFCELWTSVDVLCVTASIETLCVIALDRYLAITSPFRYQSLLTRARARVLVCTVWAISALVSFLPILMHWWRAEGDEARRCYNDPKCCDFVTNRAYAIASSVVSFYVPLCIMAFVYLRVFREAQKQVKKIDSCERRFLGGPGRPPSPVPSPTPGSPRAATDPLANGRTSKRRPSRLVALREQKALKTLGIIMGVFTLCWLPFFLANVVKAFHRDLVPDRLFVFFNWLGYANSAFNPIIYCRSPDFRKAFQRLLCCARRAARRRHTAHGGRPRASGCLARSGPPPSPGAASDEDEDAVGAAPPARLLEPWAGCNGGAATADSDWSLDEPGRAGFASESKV

| Compound | EC50 [1] | EC50 (Adrenergic receptor beta) | EC50 [2] | Ki [3] |
| --- | --- | --- | --- | --- |
| CC(C)(C)NCC(O)COc1ccc(O)c(O)c1F (stereo not drawn) | 8.6 nM | 9.2 nM | 38 nM | 60 nM |
| CC(C)(C)NCC(O)COc1cc(O)c(O)cc1F (stereo not drawn) | 175 nM | >> 10000 nM | > 10000 nM | 87000 nM |
| CC(C)(C)NCC(O)COc1ccc(O)c(O)c1 (stereo not drawn) | 4.7 nM | 8.2 nM | 130 nM | 120 nM |
| CC(C)NCC(O)c1ccc(O)c(O)c1 (stereo not drawn) [ISOPROTERENOL] | – | – | 58 nM | – |
